The source of these data is ChEMBL document CHEMBL1667844, “Synthesis, structure-activity relationships and preliminary antitumor evaluation of benzothiazole-2-thiol derivatives as novel apoptosis inducers” (Bioorg Med Chem Lett, 2011).

Experiment [1] relates to HepG2. Nature of the experiment: Cytotoxicity against human HepG2 cells after 48 hrs by MTT assay. The experiment is classed as functional, cell-based. Conditions: HepG2, 48 h. On the technique in general: Tetrazolium dyes change colour on reduction, which living cells bring about.
The next experiment deals with MCF7. The experiment in a line: Cytotoxicity against human MCF7 cells after 48 hrs by MTT assay. The experiment is classed as functional, cell-based. The following applies: MCF7, 48 h.
The subject of another experiment is HCT-116. The experiment in a line: Cytotoxicity against human HCT116 cells after 48 hrs by MTT assay. The experiment is classed as functional, cell-based. Conditions: HCT-116, 48 h.
A further experiment deals with SW480. Nature of the experiment: Cytotoxicity against human SW480 cells after 48 hrs by MTT assay. The experiment is classed as functional, cell-based. The following applies: SW480, 48 h.
For another experiment, the system named is SW-620. Nature of the experiment: Cytotoxicity against human SW620 cells after 48 hrs by MTT assay. The following applies: SW-620, 48 h. The experiment is classed as functional, cell-based.
The subject of another experiment is A549. The experiment in a line: Cytotoxicity against human A549 cells after 48 hrs by MTT assay. The following applies: A549, 48 h. The experiment is classed as functional, cell-based.
The next experiment has as its system PC-3. Nature of the experiment: Cytotoxicity against human PC3 cells after 48 hrs by MTT assay. Conditions: PC-3, 48 h. The experiment is classed as functional, cell-based.
The subject of a further experiment is BXPC-3. Nature of the experiment: Cytotoxicity against human BxPC3 cells after 48 hrs by MTT assay. The experiment is classed as functional, cell-based. The following applies: BXPC-3, 48 h.
For a further experiment, the system named is A-431. The experiment in a line: Cytotoxicity against human A431 cells after 48 hrs by MTT assay. The experiment is classed as functional, cell-based. Conditions: A-431, 48 h.
For the next experiment, the system named is HeLa. Nature of the experiment: Cytotoxicity against human HeLa cells after 48 hrs by MTT assay. The experiment is classed as functional, cell-based.
Another experiment relates to A-375. Nature of the experiment: Cytotoxicity against human A375 cells after 48 hrs by MTT assay. The experiment is classed as functional, cell-based. The following applies: A-375, 48 h.
For the next experiment, the system named is SK-OV-3. Nature of the experiment: Cytotoxicity against human SKOV3 cells after 48 hrs by MTT assay. Conditions: SK-OV-3, 48 h. The experiment is classed as functional, cell-based.
The subject of another experiment is MDA-MB-468. Nature of the experiment: Cytotoxicity against human MDA-MB-468 cells after 48 hrs by MTT assay. Conditions: MDA-MB-468, 48 h. The experiment is classed as functional, cell-based.
For another experiment, the system named is SK-BR-3. The experiment in a line: Cytotoxicity against human SK-BR-3 cells after 48 hrs by MTT assay. The experiment is classed as functional, cell-based. Conditions: SK-BR-3, 48 h.
Experiment [2] relates to HepG2. Nature of the experiment: Induction of apoptosis in human HepG2 cells assessed as DNA content at sub-G1 phase at 0.3 uM after 24 hrs using propidium iodide staining by flow cytometry (reference value: 4.3 %). The experiment is classed as functional. (In flow cytometry, cells or beads pass a laser one at a time.)
The test system of experiment [3] is HepG2. Nature of the experiment: Induction of apoptosis in human HepG2 cells assessed as DNA content at sub-G1 phase at 0.6 uM after 24 hrs using propidium iodide staining by flow cytometry (reference value: 4.3 %). The experiment is classed as functional.
Experiment [4] concerns HepG2. The experiment in a line: Induction of apoptosis in human HepG2 cells assessed as DNA content at sub-G1 phase at 1.2 uM after 24 hrs using propidium iodide staining by flow cytometry (reference value: 4.3 %). The experiment is classed as functional.
In experiment [5] the test system is HepG2. The experiment in a line: Induction of apoptosis in human HepG2 cells assessed as DNA content at sub-G1 phase after 24 hrs using propidium iodide staining by flow cytometry. The experiment is classed as functional, cell-based.
The test system of experiment [6] is HepG2. The experiment in a line: Induction of apoptosis in human HepG2 cells assessed as morphological changes after 24 hrs using propidium iodide staining by fluorescence microscopic analysis. The experiment is classed as functional, cell-based.

A value given as a limit tells only on which side of the number the result lay.

As for `CNC(=O)CSc1nc2ccc(NC(=O)c3ccc([N+](=O)[O-])cc3)cc2s1`, the concentration for half-maximal inhibition (IC50) in the experiment with HepG2 [1] and in the experiment with MCF7 was more than 100 µM in each case.
With `CNC(=O)CSc1nc2ccc(NC(=O)c3ccc(Cl)cc3)cc2s1`, the results for the IC50 with HepG2 [1] and in the experiment on MCF7 were 15.3 µM and 29.4 µM, respectively.
`O=C(CSc1nc2ccc(NC(=O)c3ccc(Cl)cc3)cc2s1)NCc1ccc(Cl)cc1`: the concentration for half-maximal inhibition (IC50) in the experiment on HepG2 [1] is 17.8 µM; in the experiment on MCF7, 29.3 µM.
Regarding `O=C(CSc1nc2ccc(NC(=O)CCl)cc2s1)NCc1ccc(Cl)cc1`, the IC50 in the experiment with HepG2 [1] turned out to be 1.8 µM; in the experiment with MCF7 it was 4.9 µM.
The corresponding values for `CNC(=O)CSc1nc2ccc(NC(=O)c3ccccc3)cc2s1` are 26.5 µM and 34.4 µM.
As to `CC(=O)Nc1ccc2nc(SCC(=O)NCc3ccc(Cl)cc3)sc2c1`, the IC50 with HepG2 [1] was 6.7 µM; in the experiment on MCF7, 10.2 µM.
The corresponding values for `COc1ccc(CNC(=O)CSc2nc3ccc(NC(=O)c4ccccc4OC)cc3s2)cc1` are 2.1 µM and 9.3 µM.
As for `O=C(CSc1nc2ccc(NC(=O)CCl)cc2s1)NCc1ccccc1`, the half-maximal inhibitory concentration (IC50) was 1.1 µM in the experiment on HepG2 [1]; 4.2 µM with MCF7; 1.3 µM with HCT-116; 5.2 µM in the experiment with SW480; 1.2 µM with SW-620; 4 µM in the experiment with A549. The IC50 in the experiment on PC-3 amounted to 6.1 µM; with BXPC-3, 6.6 µM; in the experiment with A-431, 4.4 µM; in the experiment with HeLa, 4.9 µM; in the experiment with A-375, 1.8 µM; in the experiment with SK-OV-3, 4.8 µM. Also, the IC50 was found to be 4.1 µM in the experiment on MDA-MB-468 and 8.8 µM with SK-BR-3.
As to `COc1ccc(CNC(=O)CSc2nc3ccc(NC(=O)c4ccccc4)cc3s2)cc1`, the results for the IC50 in the experiment on HepG2 [1] and with MCF7 were 12.7 µM and 21.2 µM, respectively.
Take `CC(=O)Nc1ccc2nc(SCC(=O)NCc3ccccc3)sc2c1`: the IC50 stood at 9.2 µM in the experiment on HepG2 [1] and 17.6 µM in the experiment with MCF7.
Take `COc1ccc(CNC(=O)CSc2nc3ccc(NC(=O)CCl)cc3s2)cc1`: the figures for the IC50 in the experiment on HepG2 [1] and in the experiment on MCF7 were 2 µM and 5.1 µM, respectively.
Consider `O=C(CSc1nc2ccc(NC(=O)c3ccc([N+](=O)[O-])cc3)cc2s1)NCc1ccc(Cl)cc1`, for which the IC50 in the experiment with HepG2 [1] and in the experiment with MCF7 was more than 100 µM throughout.
As to `COc1ccc(CNC(=O)CSc2nc3ccc(NC(C)=O)cc3s2)cc1`, the concentration for half-maximal inhibition (IC50) was determined as 11.2 µM in the experiment with HepG2 [1] and 20.5 µM in the experiment with MCF7.
`CNC(=O)CSc1nc2ccc(NC(C)=O)cc2s1`: the concentration for half-maximal inhibition (IC50) in the experiment with HepG2 [1] and in the experiment on MCF7 was more than 100 µM each time.
On to `CNC(=O)CSc1nc2ccc(NC(=O)CCl)cc2s1`, for which the concentration for half-maximal inhibition (IC50) in the experiment with HepG2 [1] worked out at 1.9 µM; with MCF7 it was 5 µM.
The corresponding values for `CNC(=O)CSc1nc2ccc(NC(=O)c3ccccc3OC)cc2s1` are 18.5 µM and 23.4 µM.
For `COc1ccccc1C(=O)Nc1ccc2nc(SCC(=O)NCc3ccc(Cl)cc3)sc2c1`, the IC50 amounted to 0.6 µM in the experiment on HepG2 [1]; 1.1 µM in the experiment with MCF7; 1.5 µM with HCT-116; 5.4 µM with SW480; 4.2 µM in the experiment on SW-620; 2 µM in the experiment on A549. Further, the IC50 in the experiment on PC-3 came out at 4.6 µM; in the experiment with BXPC-3, 4.4 µM; with A-431, 1.1 µM; with HeLa it was 4.2 µM; with A-375 it was 2.2 µM; with SK-OV-3 it was 6 µM. The concentration for half-maximal inhibition (IC50) in the experiment on MDA-MB-468 amounted to 2.3 µM; with SK-BR-3 it was 1.2 µM. The Activity was 19.2% in the experiment on HepG2 [2]; 35.9% in the experiment with HepG2 [3]; 55.4% with HepG2 [4]; “Dose-dependent effect” in the experiment on HepG2 [5]; “Dose-dependent effect” in the experiment on HepG2 [6].
As for `O=C(CSc1nc2ccc(NC(=O)c3ccc(Cl)cc3)cc2s1)NCc1ccccc1`, the results for the half-maximal inhibitory concentration (IC50) with HepG2 [1] and in the experiment with MCF7 were 25.4 µM and 25.9 µM, respectively.
With `O=C(CSc1nc2ccc(NC(=O)c3ccccc3)cc2s1)NCc1ccccc1`, the IC50 in the experiment on HepG2 [1] amounted to 34.2 µM; in the experiment with MCF7, 35.6 µM.
Turning to `COc1ccc(CNC(=O)CSc2nc3ccc(NC(=O)c4ccc(Cl)cc4)cc3s2)cc1`, the values for the IC50 in the experiment on HepG2 [1] and in the experiment with MCF7 were 7.4 µM and 19.2 µM, respectively.
In the case of `O=C(CSc1nc2ccc(NC(=O)c3ccc([N+](=O)[O-])cc3)cc2s1)NCc1ccccc1`, the IC50 in the experiment on HepG2 [1] and in the experiment on MCF7 was more than 100 µM in each case.
`O=C(CSc1nc2ccc(NC(=O)c3ccccc3)cc2s1)NCc1ccc(Cl)cc1`: the 50% inhibitory concentration (IC50) turned out to be 30.1 µM with HepG2 [1] and 33.7 µM in the experiment with MCF7.
`COc1ccc(CNC(=O)CSc2nc3ccc(NC(=O)c4ccc([N+](=O)[O-])cc4)cc3s2)cc1`: the IC50 with HepG2 [1] and with MCF7 was more than 100 µM each time.
For the compound `COc1ccccc1C(=O)Nc1ccc2nc(SCC(=O)NCc3ccccc3)sc2c1`, the half-inhibitory concentration (IC50) with HepG2 [1] was found to be 8 µM; with MCF7, 17.2 µM.

A word on the IC50: it is the midpoint of a concentration-inhibition curve. Lower therefore signals inhibition by little substance.
